Target: T1, STING (Homo sapiens, UniProt Q86WV6, G230A/H232R/R293Q/R71H)
T1 construct: host or cells: THP1-Dual KO-IFNAR2 cells
Experiment: STING reporter assay in THP1-Dual KO-IFNAR2 cells (luciferase reporter, 2′3′cGAMP stimulation)
Assay type: cell-based
Details: 2′3′cGAMP 15 μM, 24 h, luciferase reporter activity, GeoMean, read-out: Pharmaron, THP1_IFNAR2 STING 24 h Luci Normalized: GeoMean EC50
Procedure: STING pathway activation by the compounds described herein was measured using THP1-Dual™ cells (KO-IFNAR2).
THP1-Dual™ KO-IFNAR2 Cells (obtained from invivogen) were maintained in RPMI, 10% FCS, 5 ml P/S, 2 mM L-glut, 10 mM Hepes, and 1 mM sodium pyruvate. Compounds were spotted in empty 384 well tissue culture plates (Greiner 781182) by Echo for a final concentration of 0.0017-100 μM. Cells were plated into the TC plates at 40 μL per well, 2×10E6 cells/mL. For activation with STING ligand, 2′3′cGAMP (MW 718.38, obtained from Invivogen), was prepared in Optimem media.
The following solutions were prepared for each 1×384 plate: • Solution A: 2 mL Optimem with one of the following stimuli: • […] of 10 mM 2′3′cGAMP→150 μM stock • Solution B: 2 mL Optimem with 60 μL Lipofectamine 2000→Incubate 5 min at RT • 2 mL of solution A and 2 ml Solution B was mixed and incubated for 20 min at room temperature (RT). 20 μL of transfection solution (A+B) was added on top of the plated cells, with a final 2′3′cGAMP concentration of 15 μM. The plates were then centrifuged immediately at 340 g for 1 minute, after which they were incubated at 37° C., 5% CO2, >98% humidity for 24 h. Luciferase reporter activity was then measured. EC50 values were calculated by using standard methods known in the art.
Luciferase reporter assay: 10 μL of supernatant from the assay was transferred to white 384-plate with flat bottom and squared wells. One pouch of QUANTI-Luc™ Plus was dissolved in 25 mL of water. 100 μL of QLC Stabilizer per 25 mL of QUANTI-Luc™ Plus solution was added. 50 μL of QUANTI-Luc™ Plus/QLC solution per well was then added. Luminescence was measured on a Platereader (e.g., Spectramax I3X (Molecular Devices GF3637001)).
Luciferase reporter activity was then measured. EC50 values were calculated by using standard methods known in the art.

T1 sequence (Q86WV6 whole entry R71H/G230A/H232R/R293Q): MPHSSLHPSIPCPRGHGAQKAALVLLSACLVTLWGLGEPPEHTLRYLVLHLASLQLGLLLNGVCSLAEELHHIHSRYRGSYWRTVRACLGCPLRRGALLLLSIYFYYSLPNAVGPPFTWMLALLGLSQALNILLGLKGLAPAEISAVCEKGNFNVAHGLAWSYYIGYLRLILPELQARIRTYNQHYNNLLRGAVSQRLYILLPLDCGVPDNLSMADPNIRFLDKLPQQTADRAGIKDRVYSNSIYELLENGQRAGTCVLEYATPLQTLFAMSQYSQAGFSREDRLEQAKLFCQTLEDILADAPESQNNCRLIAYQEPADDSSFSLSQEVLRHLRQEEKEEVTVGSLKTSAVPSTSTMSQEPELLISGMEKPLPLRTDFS

| SMILES | EC50 [nM] |
| --- | --- |
| O=S(=O)(Nc1c[nH]c2ccc(CCOc3ccc(C(F)(F)F)cc3)cc12)c1cccc(Cl)n1 [Compound 104, 6-chloro-N-(5-(2-(4-(trifluoromethyl)phenoxy)ethyl)-1H-indol-3-yl)pyridine-2-sulfonamide] | 200 to 1000 |
| O=S(=O)(Nc1c[nH]c2ccc(CCOc3ccc(C(F)(F)F)cc3)cc12)C1CCOCC1 [Compound 105, N-(5-(2-(4-(trifluoromethyl)phenoxy)ethyl)-1H-indol-3-yl)tetrahydro-2H-pyran-4-sulfonamide] | 200 to 1000 |
| Cn1ccc(S(=O)(=O)Nc2c[nH]c3ccc(CCOc4ccc(C(F)(F)F)cc4)cc23)n1 [Compound 107, 1-methyl-N-(5-(2-(4-(trifluoromethyl)phenoxy)ethyl)-1H-indol-3-yl)-1H-pyrazole-3-sulfonamide] | 200 to 1000 |
| O=S(=O)(CC1CCOCC1)Nc1c[nH]c2ccc(CCOc3ccc(C(F)(F)F)cc3)cc12 [Compound 108, 1-(tetrahydro-2H-pyran-4-yl)-N-(5-(2-(4-(trifluoromethyl)phenoxy)ethyl)-1H-indol-3-yl)methanesulfonamide] | 200 to 1000 |
| Cn1cc(S(=O)(=O)Nc2c[nH]c3ccc(OCCc4ccc(C(F)(F)F)cc4)cc23)cn1 [Compound 110, 1-methyl-N-(5-(4-(trifluoromethyl)phenethoxy)-1H-indol-3-yl)-1H-pyrazole-4-sulfonamide] | 40 to 200 |
| Cn1cnc(S(=O)(=O)Nc2c[nH]c3ccc(CCOc4ccc(C(F)(F)F)cc4)cc23)c1 [Compound 111, 1-methyl-N-(5-(2-(4-(trifluoromethyl)phenoxy)ethyl)-1H-indol-3-yl)-1H-imidazole-4-sulfonamide] | 200 to 1000 |
| O=S(=O)(Nc1c[nH]c2ccc(OCCc3ccc(C(F)(F)F)cc3)cc12)C1CCOCC1 [Compound 115, N-(5-(4-(trifluoromethyl)phenethoxy)-1H-indol-3-yl)tetrahydro-2H-pyran-4-sulfonamide] | 200 to 1000 |
| Cn1ccc(S(=O)(=O)Nc2c[nH]c3ccc(OCCc4ccc(C(F)(F)F)cc4)cc23)n1 [Compound 116, 1-methyl-N-(5-(4-(trifluoromethyl)phenethoxy)-1H-indol-3-yl)-1H-pyrazole-3-sulfonamide] | 200 to 1000 |
| O=S(=O)(CC1CCCO1)Nc1c[nH]c2ccc(OCCc3ccc(C(F)(F)F)cc3)cc12 (centres unmarked) [Compound 117, 1-(tetrahydrofuran-2-yl)-N-(5-(4-(trifluoromethyl)phenethoxy)-1H-indol-3-yl)methanesulfonamide] | 200 to 1000 |
| Cn1cnc(S(=O)(=O)Nc2c[nH]c3ccc(OCCc4ccc(C(F)(F)F)cc4)cc23)c1 [Compound 118, 1-methyl-N-(5-(4-(trifluoromethyl)phenethoxy)-1H-indol-3-yl)-1H-imidazole-4-sulfonamide] | 200 to 1000 |
| O=S(=O)(CC1CCC1)Nc1c[nH]c2ccc(OCCc3ccc(C(F)(F)F)cc3)cc12 [Compound 119, 1-cyclobutyl-N-(5-(4-(trifluoromethyl)phenethoxy)-1H-indol-3-yl)methanesulfonamide] | 40 to 200 |
| CCS(=O)(=O)Nc1c[nH]c2ccc(OCCc3ccc(C(F)(F)F)cc3)cc12 [Compound 121, N-(5-(4-(trifluoromethyl)phenethoxy)-1H-indol-3-yl)ethanesulfonamide] | 200 to 1000 |
| O=S(=O)(Cc1ccccc1)Nc1c[nH]c2ccc(OCCc3ccc(C(F)(F)F)cc3)cc12 [Compound 122, 1-phenyl-N-(5-(4-(trifluoromethyl)phenethoxy)-1H-indol-3-yl)methanesulfonamide] | 40 to 200 |
| O=S(=O)(CC1CC1)Nc1c[nH]c2ccc(OCCc3ccc(C(F)(F)F)cc3)cc12 [Compound 124, 1-cyclopropyl-N-(5-(4-(trifluoromethyl)phenethoxy)-1H-indol-3-yl)methanesulfonamide] | 40 to 200 |
| O=S(=O)(CC1CCCO1)Nc1c[nH]c2ccc(CCOc3ccc(C(F)(F)F)cc3)cc12 (centres unmarked) [Compound 125, 1-(tetrahydrofuran-2-yl)-N-(5-(2-(4-(trifluoromethyl)phenoxy)ethyl)-1H-indol-3-yl)methanesulfonamide] | 200 to 1000 |

Other lines, results leading:

| EC50 [nM] | SMILES |
| --- | --- |
| 40 to 200 | O=S(=O)(CCC(F)(F)F)Nc1c[nH]c2ccc(CCOc3ccc(C(F)(F)F)cc3)cc12 [Compound 106, 3,3,3-trifluoro-N-(5-(2-(4-(trifluoromethyl)phenoxy)ethyl)-1H-indol-3-yl)propane-1-sulfonamide] |
| 200 to 1000 | COCCS(=O)(=O)Nc1c[nH]c2ccc(CCOc3ccc(C(F)(F)F)cc3)cc12 [Compound 109, 2-methoxy-N-(5-(2-(4-(trifluoromethyl)phenoxy)ethyl)-1H-indol-3-yl)ethane-1-sulfonamide] |
| 200 to 1000 | O=S(=O)(CCC1CC1)Nc1c[nH]c2ccc(CCOc3ccc(C(F)(F)F)cc3)cc12 [Compound 112, 2-cyclopropyl-N-(5-(2-(4-(trifluoromethyl)phenoxy)ethyl)-1H-indol-3-yl)ethane-1-sulfonamide] |
| 200 to 1000 | CCS(=O)(=O)Nc1c[nH]c2ccc(CCOc3ccc(C(F)(F)F)cc3)cc12 [Compound 113, N-(5-(2-(4-(trifluoromethyl)phenoxy)ethyl)-1H-indol-3-yl)ethanesulfonamide] |
| 200 to 1000 | O=S(=O)(CC1CCC1)Nc1c[nH]c2ccc(CCOc3ccc(C(F)(F)F)cc3)cc12 [Compound 114, 1-cyclobutyl-N-(5-(2-(4-(trifluoromethyl)phenoxy)ethyl)-1H-indol-3-yl)methanesulfonamide] |
| 200 to 1000 | O=S(=O)(CCC(F)(F)F)Nc1c[nH]c2ccc(OCCc3ccc(C(F)(F)F)cc3)cc12 [Compound 120, 3,3,3-trifluoro-N-(5-(4-(trifluoromethyl)phenethoxy)-1H-indol-3-yl)propane-1-sulfonamide] |
| 200 to 1000 | COCCS(=O)(=O)Nc1c[nH]c2ccc(OCCc3ccc(C(F)(F)F)cc3)cc12 [Compound 123, 2-methoxy-N-(5-(4-(trifluoromethyl)phenethoxy)-1H-indol-3-yl)ethane-1-sulfonamide] |
| 200 to 1000 | O=S(=O)(CC1CC1)Nc1c[nH]c2ccc(CCOc3ccc(C(F)(F)F)cc3)cc12 [Compound 126, 1-cyclopropyl-N-(5-(2-(4-(trifluoromethyl)phenoxy)ethyl)-1H-indol-3-yl)methanesulfonamide] |

Source: US20250084071A1, “COMPOUNDS AND COMPOSITIONS FOR TREATING CONDITIONS ASSOCIATED WITH STING ACTIVITY” (NOVARTIS PHARMA AG, priority 2022, published 2025)
